According to patent publication US20230085307A1, “PYRIDAZINONE COMPOUND AND HERBICIDE” (NISSAN CHEMICAL CORPORATION, priority 2019, published 2023):

What was measured:
barnyard grass [1] = assay: Test Example 3: herbicidal effect by foliage application, Wagner pot (Table 18, symbol H); assay type: in vivo, barnyard grass (Echinochloa crus-galli); conditions: 320 g/ha
How it was run: (§1)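 Plants were sown in alluvial soil held under 0.1–0.5 cm standing water and grown 14 days in a greenhouse at 25–30 °C. An emulsifiable formulation, water-diluted to the set dose, was then sprayed onto the foliage, and effects were scored three weeks later using previously defined criteria.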

Chinese sprangletop = assay: Test Example 3: herbicidal effect by foliage application, Wagner pot (Table 18, symbol D); assay type: in vivo, chinese sprangletop (Leptochloa chinensis); conditions: 320 g/ha
How it was run: as §1

rice flat sedge = assay: Test Example 3: herbicidal effect by foliage application, Wagner pot (Table 18, symbol E); assay type: in vivo, rice flat sedge (Cyperus iria); conditions: 320 g/ha
How it was run: as §1

southern crabgrass [2] = assay: Test Example 4: herbicidal effect by soil treatment (Table 19, symbol F); assay type: in vivo, southern crabgrass (Digitaria ciliaris); conditions: amount of applied herbicide 320 g/ha
How it was run: (§2)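 Soil-surface application: an emulsion agent diluted with water to the predetermined dose is sprayed uniformly over seeds lying under roughly 1.5 cm of sterilized diluvial soil. Boxes stay in a greenhouse at 25° C. to 30° C. Three weeks later, each species is graded on previously defined criteria.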

green foxtail [3] = assay: Test Example 4: herbicidal effect by soil treatment (Table 19, symbol G); assay type: in vivo, green foxtail (Setaria viridis); conditions: amount of applied herbicide 320 g/ha
How it was run: as §2

barnyard grass [4] = assay: Test Example 4: herbicidal effect by soil treatment (Table 19, symbol H); assay type: in vivo, barnyard grass (Echinochloa crus-galli); conditions: amount of applied herbicide 320 g/ha
How it was run: as §2

wild oat [5] = assay: Test Example 4: herbicidal effect by soil treatment (Table 19, symbol I); assay type: in vivo, wild oat (Avena fatua); conditions: amount of applied herbicide 320 g/ha
How it was run: as §2

blackgrass [6] = assay: Test Example 4: herbicidal effect by soil treatment (Table 19, symbol J); assay type: in vivo, blackgrass (Alopecurus myosuroides); conditions: amount of applied herbicide 320 g/ha
How it was run: as §2

Italian ryegrass [7] = assay: Test Example 4: herbicidal effect by soil treatment (Table 19, symbol K); assay type: in vivo, Italian ryegrass (Lolium multiflorum); conditions: amount of applied herbicide 320 g/ha
How it was run: as §2

windgrass [8] = assay: Test Example 4: herbicidal effect by soil treatment (Table 19, symbol L); assay type: in vivo, windgrass (Apera spica-venti); conditions: amount of applied herbicide 320 g/ha
How it was run: as §2

velvetleaf [9] = assay: Test Example 4: herbicidal effect by soil treatment (Table 19, symbol M); assay type: in vivo, velvetleaf (Abutilon theophrasti); conditions: amount of applied herbicide 320 g/ha
How it was run: as §2

redroot pigweed [10] = assay: Test Example 4: herbicidal effect by soil treatment (Table 19, symbol N); assay type: in vivo, redroot pigweed (Amaranthus retroflexus); conditions: amount of applied herbicide 320 g/ha
How it was run: as §2

lambsquarters [11] = assay: Test Example 4: herbicidal effect by soil treatment (Table 19, symbol O); assay type: in vivo, lambsquarters (Chenopodium album); conditions: amount of applied herbicide 320 g/ha
How it was run: as §2

chickweed [12] = assay: Test Example 4: herbicidal effect by soil treatment (Table 19, symbol P); assay type: in vivo, common chickweed (Stellaria media); conditions: amount of applied herbicide 320 g/ha
How it was run: as §2

persian speedwell [13] = assay: Test Example 4: herbicidal effect by soil treatment (Table 19, symbol R); assay type: in vivo, Persian speedwell (Veronica persica); conditions: amount of applied herbicide 320 g/ha
How it was run: as §2

southern crabgrass [14] = assay: Test Example 5: herbicidal effect by foliage application, plastic box (Table 20, symbol F); assay type: in vivo, southern crabgrass (Digitaria ciliaris); conditions: foliage application, 320 g/ha, three weeks after application
How it was run: (§3)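 Sow seeds spot-wise in sterilized diluvial soil; cover with ~1.5 cm soil. Grow 14 days in greenhouse, 25° C. to 30° C. Spray foliage with emulsion diluted to predetermined amount. Rate effect after 3 weeks.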

green foxtail [15] = assay: Test Example 5: herbicidal effect by foliage application, plastic box (Table 20, symbol G); assay type: in vivo, green foxtail (Setaria viridis); conditions: foliage application, 320 g/ha, three weeks after application
How it was run: as §3

barnyard grass [16] = assay: Test Example 5: herbicidal effect by foliage application, plastic box (Table 20, symbol H); assay type: in vivo, barnyard grass (Echinochloa crus-galli); conditions: foliage application, 320 g/ha, three weeks after application
How it was run: as §3

wild oat [17] = assay: Test Example 5: herbicidal effect by foliage application, plastic box (Table 20, symbol I); assay type: in vivo, wild oat (Avena fatua); conditions: foliage application, 320 g/ha, three weeks after application
How it was run: as §3

blackgrass [18] = assay: Test Example 5: herbicidal effect by foliage application, plastic box (Table 20, symbol J); assay type: in vivo, blackgrass (Alopecurus myosuroides); conditions: foliage application, 320 g/ha, three weeks after application
How it was run: as §3

Italian ryegrass [19] = assay: Test Example 5: herbicidal effect by foliage application, plastic box (Table 20, symbol K); assay type: in vivo, Italian ryegrass (Lolium multiflorum); conditions: foliage application, 320 g/ha, three weeks after application
How it was run: as §3

windgrass [20] = assay: Test Example 5: herbicidal effect by foliage application, plastic box (Table 20, symbol L); assay type: in vivo, windgrass (Apera spica-venti); conditions: foliage application, 320 g/ha, three weeks after application
How it was run: as §3

velvetleaf [21] = assay: Test Example 5: herbicidal effect by foliage application, plastic box (Table 20, symbol M); assay type: in vivo, velvetleaf (Abutilon theophrasti); conditions: foliage application, 320 g/ha, three weeks after application
How it was run: as §3

redroot pigweed [22] = assay: Test Example 5: herbicidal effect by foliage application, plastic box (Table 20, symbol N); assay type: in vivo, redroot pigweed (Amaranthus retroflexus); conditions: foliage application, 320 g/ha, three weeks after application
How it was run: as §3

lambsquarters [23] = assay: Test Example 5: herbicidal effect by foliage application, plastic box (Table 20, symbol O); assay type: in vivo, lambsquarters (Chenopodium album); conditions: foliage application, 320 g/ha, three weeks after application
How it was run: as §3

chickweed [24] = assay: Test Example 5: herbicidal effect by foliage application, plastic box (Table 20, symbol P); assay type: in vivo, common chickweed (Stellaria media); conditions: foliage application, 320 g/ha, three weeks after application
How it was run: as §3

persian speedwell [25] = assay: Test Example 5: herbicidal effect by foliage application, plastic box (Table 20, symbol R); assay type: in vivo, Persian speedwell (Veronica persica); conditions: foliage application, 320 g/ha, three weeks after application
How it was run: as §3

CCCC(=O)Oc1c(C)nn(C)c(=O)c1-c1c(-c2ccc(OCC)nc2)sc2ccccc12 [1-077]
herbicidal effect on H (barnyard grass), rating 0-5 (barnyard grass [1]): 4 (Herbicidal rate of 70% or more and less than 90%)
herbicidal effect on D (Chinese sprangletop), rating 0-5 (Chinese sprangletop): 1 (Herbicidal rate of 5% or more and less than 20%)
herbicidal effect on E (rice flat sedge), rating 0-5 (rice flat sedge): 4 (Herbicidal rate of 70% or more and less than 90%)
herbicidal effect rating, F: southern crabgrass (southern crabgrass [2]): 0 (Herbicidal rate of 5% or less (almost no effect))
herbicidal effect rating, G: green foxtail (green foxtail [3]): 0 (Herbicidal rate of 5% or less (almost no effect))
herbicidal effect rating, H: barnyard grass (barnyard grass [4]): 0 (Herbicidal rate of 5% or less (almost no effect))
herbicidal effect rating, I: wild oat (wild oat [5]): 0 (Herbicidal rate of 5% or less (almost no effect))
herbicidal effect rating, J: blackgrass (blackgrass [6]): 0 (Herbicidal rate of 5% or less (almost no effect))
herbicidal effect rating, K: Italian ryegrass (Italian ryegrass [7]): 0 (Herbicidal rate of 5% or less (almost no effect))
herbicidal effect rating, L: windgrass (windgrass [8]): 0 (Herbicidal rate of 5% or less (almost no effect))
herbicidal effect rating, M: velvetleaf (velvetleaf [9]): 0 (Herbicidal rate of 5% or less (almost no effect))
herbicidal effect rating, N: redroot pigweed (redroot pigweed [10]): 0 (Herbicidal rate of 5% or less (almost no effect))
herbicidal effect rating, O: lambsquarters (lambsquarters [11]): 0 (Herbicidal rate of 5% or less (almost no effect))
herbicidal effect rating, P: chickweed (chickweed [12]): 4 (Herbicidal rate of 70% or more and less than 90%)
herbicidal effect rating, R: persian speedwell (persian speedwell [13]): 4 (Herbicidal rate of 70% or more and less than 90%)
herbicidal effect grade, F: southern crabgrass (southern crabgrass [14]): 0 (Herbicidal rate of 5% or less (almost no effect))
herbicidal effect grade, G: green foxtail (green foxtail [15]): 1 (Herbicidal rate of 5% or more and less than 20%)
herbicidal effect grade, H: barnyard grass (barnyard grass [16]): 2 (Herbicidal rate of 20% or more and less than 40%)
herbicidal effect grade, I: wild oat (wild oat [17]): 1 (Herbicidal rate of 5% or more and less than 20%)
herbicidal effect grade, J: blackgrass (blackgrass [18]): 1 (Herbicidal rate of 5% or more and less than 20%)
herbicidal effect grade, K: Italian ryegrass (Italian ryegrass [19]): 1 (Herbicidal rate of 5% or more and less than 20%)
herbicidal effect grade, L: windgrass (windgrass [20]): 0 (Herbicidal rate of 5% or less (almost no effect))
herbicidal effect grade, M: velvetleaf (velvetleaf [21]): 4 (Herbicidal rate of 70% or more and less than 90%)
herbicidal effect grade, N: redroot pigweed (redroot pigweed [22]): 0 (Herbicidal rate of 5% or less (almost no effect))
herbicidal effect grade, O: lambsquarters (lambsquarters [23]): 0 (Herbicidal rate of 5% or less (almost no effect))
herbicidal effect grade, P: chickweed (chickweed [24]): 3 (Herbicidal rate of 40% or more and less than 70%)
herbicidal effect grade, R: persian speedwell (persian speedwell [25]): 5 (Herbicidal rate of 90% or more (almost completely withered))
